# “And” between values parts separate entries of the source, which are not always exact repeats. Identical values can stand only once.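 All cell lines were grown in 96-well plates and treated with compound for 48 hours. Here, GI50 denotes the concentration required for 50% inhibition of growth. The concentration for full growth arrest is given as TGI.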
# System: MDA-MB-468 breast
# Experiment: NCI tumour cell line growth inhibition, 48 h
SMILES,GI50,TGI
COc1cccc2c1C(=O)c1c(O)c3c(c(O)c1C2=O)C[C@@](O)(C(=O)CO)C[C@@H]3OC1CC(N)C(O)C(C)O1 (stereo partly specified),0.0599 µM and 0.0589 µM and 0.0971 µM,0.25 µM and 0.236 µM and 0.486 µM
Nc1ccc2c(c1)Cc1cc(Cl)c(Cl)cc1-2,1.36 µM,86.4 µM
CCCCCCCCCCCCC[N+](C)(C)Cc1ccccc1,0.213 µM,0.852 µM
CCN1CCN(c2cc(C)nc(N(CCCNc3ccnc4cc(Cl)ccc34)Cc3cccs3)n2)CC1,1.98 µM,5.09 µM
CC(C)=CC(=O)OCC(=O)O[C@@H]1C[C@]2(C(C)C)O[C@@]1(C)[C@@H]1CC[C@@H](C)[C@H]1[C@@H]2OC(=O)/C=C/c1ccccc1,11.4 µM,> 82.7 µM
CCOC(=O)c1c(NCC(=O)Nc2cccc([N+](=O)[O-])c2)sc(C(C)=O)c1C,1.85 µM,4.53 µM
Cc1cc(C)c(CNC(=O)c2cc(-c3ccc(CN4CCOCC4)cc3)cc3c2cnn3C2CCCC2)c(=O)[nH]1,13.9 µM,36.2 µM
CC(=O)OCC1OC(OC2=C(CC=C(C)C)C(=O)c3ccccc3C2=O)C(OC(C)=O)C(OC(C)=O)C1OC(C)=O (stereo unspecified),1.58 µM,3.68 µM
COc1ccc2c(c1)N(CCO)C1=C(C(=O)OC1)C2c1cc(OC)c(OC)c(OC)c1 (stereo unspecified),0.0123 µM,0.0405 µM
CC(C)(O)c1coc(S(=O)(=O)/N=C(\O)Nc2c3c(cc4c2CCC4)CCC3)c1,> 100 µM,> 100 µM
COc1c(OCCCN2CCOCC2)ccc2c3n(c(=NC(=O)c4cnc(N)nc4)nc12)CCN3,0.0212 µM and 0.0279 µM and 0.0389 µM,229 nM [middle of 4 runs]
Cc1cccc(NC(=O)c2sc3nc4c(cc3c2N)CCCC4)c1,1.75 µM,44.1 µM
COc1cc(C(=O)/C=C/c2c(-c3cccs3)nc3sc(C)cn23)cc(OC)c1OC,2.23 µM,8.45 µM
COc1cc(/C=C/C(=O)c2cc(OC)c(OC)c(OC)c2)ccc1Oc1nc2c(c(=O)n(C)c(=O)n2C)n1C,1.92 µM,3.73 µM
C=C(C)[C@@H]1CC[C@]2(CNCCO)CC[C@]3(C)[C@H](CC[C@@H]4[C@@]5(C)CCC(N)[C@@](C)(CO)[C@@H]5CC[C@]43C)[C@@H]12 (stereo partly specified),1.61 µM,3.18 µM
CCOC(=O)c1ccc2c(c1)c1c(C)c3ccncc3c(C)c1n2C,1.16 µM,2.83 µM
COC(=O)c1c2c(c[n+]([O-])c1C)C(=O)C=C(NCc1ccccc1)C2=O,0.138 µM,0.371 µM
COc1cc(C2c3cc4c(cc3OC(N3CCCCC3)C2C)OCO4)cc(OC)c1OC (stereo unspecified),3.66 µM,30.3 µM
O=C(N/N=C/c1ccc(Cl)s1)c1[nH]c2ccc(Br)cc2c1-c1ccccc1,0.286 µM,4.2 µM
CC1(C)CCC(S(=O)(=O)c2ccc3c(c2)/C(=N\O)c2cc(S(=O)(=O)N4CCN(c5ccc(F)cc5O)CC4)ccc2-3)CC1,0.0371 µM,0.134 µM
CC(C)(C)c1[nH]nc2c1C(c1cc3ccccc3[nH]c1=O)Nc1cc(C(=O)Nc3ccc(Cl)cc3)ccc1N2 (stereo unspecified),1.36 µM,3.08 µM

SMILES,GI50,TGI
O=C1/C(=C\c2ccc(Br)cc2)CN(C(=O)c2ccccc2F)C/C1=C\c1ccc(Br)cc1,1.69 µM,3.69 µM
CN(C)c1ccc2nc3ccc(=N)cc-3sc2c1,3.52 µM,13.8 µM
Cn1cc(C2=C(Sc3ccccc3)C(=O)NC2=O)c2ccccc21,4.94 µM,10.4 µM
c1cc(N2CCCC2)c2nc(-c3[nH]ncc3Nc3ncnc4[nH]ccc34)[nH]c2c1,0.0661 µM,0.265 µM
CC1=C(SCCC(=O)OCC(=O)NCCC[Te]c2ccccc2)C(=O)c2ccccc2C1=O,1.81 µM,3.61 µM
CC#Cc1nc2ccccc2c(=O)[nH]1,2.36 µM,6.04 µM
Cc1c(NC(=O)c2cc(C(N)=O)nc3cc(F)ccc23)c(C(F)(F)F)nn1Cc1ccc(C#N)cc1,6.58 µM,> 71.9 µM
COc1ccc2c(CCC(c3ccccc3)c3ccccc3)c3[n+](cc2c1OC)CCc1cc2c(cc1-3)OCO2,,0.228 µM
O=C1OCC2=C1C(c1cccc(F)c1)c1cc3c(cc1N2CCO)CCC3 (stereo unspecified),0.0371 µM,1.09 µM
COc1cc(Nc2cc(C)nc(N3CCN(c4ccnc5cc(Cl)ccc45)CC3)n2)cc(OC)c1,0.129 µM,3.2 µM
Nc1nc2c(c3cnccc13)C(c1cccc(Br)c1)Cc1cnccc1-2 (stereo unspecified),0.257 µM,0.808 µM
CC[C@]12C=CCN3CC[C@]4(C(=C(C(=O)OC)C1)Nc1cc(OC)c(OC(C)=O)cc14)[C@@H]32,0.428 µM,20.2 µM
COc1cc2c3c(n(CCCN4CCCCC4)c(=O)c2cc1OC)-c1cc2c(cc1C3=O)OCO2,1.49 µM,2.86 µM
CCOC(=O)c1cc(C(=O)c2ccc(Cl)cc2)n2ccc(-c3cc[n+](CC(=O)c4ccc(OC)cc4)cc3)cc12,1.84 µM,3.75 µM
CCN(CC)c1ccc(N=O)cc1,1.72 µM,4.39 µM
CCCCCCCCCCCCCCCCCCOP(=O)([O-])OC1CC[N+](C)(C)CC1,3.74 µM,> 10 µM
Cc1ncn(-c2ccc(/C=N/Nc3ccnc4cc(Cl)ccc34)cc2)c1C,1.48 µM,3 µM
NC(=O)c1cccc(-n2ccc3cc(NC(=O)Nc4ccc(N5CCOCC5)c(C(F)(F)F)c4)ccc32)n1,2.44 µM,7.53 µM
O=C1NC(=NCCc2cccs2)S/C1=C\c1ccc2ncccc2c1,5.53 µM,> 25 µM
COc1ccc(C2=C(c3cn(C)c4ccccc34)C(=O)NC2=O)cc1,9.84 µM,> 25 µM
